From paper PMC8591608, “DNDI-6148: A Novel Benzoxaborole Preclinical Candidate for the Treatment of Visceral Leishmaniasis” (Journal of Medicinal Chemistry, 2021)
Read-outs that look alike come from different tables or passages of the source.

Tests used:
CYP2D6 = CYP2D6 (Homo sapiens, UniProt P10635); test: CYP inhibition, CYP2D6; assay type: in vitro ADME; conditions: human liver microsomes
Protocol: The study was conducted by WuXi AppTec, Co., China, using the time-dependent (TDI) method. […] Following incubation with substrates (phenacetin for 1A2, diclofenac for 2C9, S-(+) mephenytoin for 2C19, dextromethorphan for 2D6, and midazolam or testosterone for 3A4), reactions were stopped by adding ice-cold acetonitrile, the samples were analyzed for the formation of metabolites by LC-MS/MS, and the percentage of inhibition was determined.

[1] = test system: CPSF3-overexpressing L. donovani promastigotes; test: Drug sensitivity, CPSF3-overexpressing L. donovani promastigotes; assay type: cell-based; conditions: Leishmania donovani
Protocol: (§1) The clonal L. donovani cell line LdBOB (derived from MHOM/SD/62/1S-CL2D) was grown as promastigotes at 28 °C, as described previously. Bloodstream form T. brucei MiTat 1.2 clone 221a and its derived subline, 2T1, were cultured at 37 °C in the presence of 5% CO2 in HMI9-T medium, as described previously. T. brucei cell lines overexpressing CPSF3 and overexpressing a mutated version of CPSF3 (Asn232His) were generated as part of a previous study and cultured as described.[19]
(§2) L. donovaniCPSF3 gene (LdBPK_343210.1) was custom synthesized by GeneArt and ligated into the pIR1SAT vector via BglII restriction sites. Using the Q5 mutagenesis kit (NEB) and the pIR1SAT-LdCPSF3^WT construct as a template, mutations encoding A655C and Asn219His change to CPSF3^WT were introduced. Mutations were introduced using the specific primers 5′-GAGTACACGGCATCCGC-3′ and 5′-[…]-3′ and as per manufacturers’ instructions. Wild-type and mutated pIR1SAT constructs were digested with SwaI and transfected into L. donovani promastigotes, as previously described. Resistant clones were selected with nourseothricin (100 μg/mL), and two clones per transfection were selected for further study.
(§3) Drug sensitivity assays with wild-type and transgenic T. brucei and L. donovani cell lines were carried out as previously described.[31],[32]

[2] = test system: CPSF3 (Asn219His)-overexpressing L. donovani promastigotes; test: Drug sensitivity, CPSF3 (Asn219His)-overexpressing L. donovani promastigotes; assay type: cell-based; conditions: Leishmania donovani
Protocol: as §1, §2, §3

[3] = Plasma-protein binding, dog; assay type: in vitro ADME; conditions: Beagle, pH 7.4
Protocol: Tests were conducted by WuXi AppTec, Co., China, using the equilibrium dialysis method and a 96-well plate format. The test compound (at 2 μM, in triplicate) in solution in plasma (Balb/c mouse, golden (Syrian) hamster, Sprague-Dawley rat, Beagle dog or human) was dialyzed against 100 mM phosphate-buffered saline (pH 7.4) on a rotating plate incubated for 6 h at 37 °C. Following the precipitation of protein with acetonitrile or acetonitrile/methanol containing both 1% phosphoric acid, the amount of compound present in each compartment was quantified by LC-MS/MS.

[4] = In vivo pharmacokinetics in dog; design: species or system male Beagle dogs; conditions: for MRT inf: read-out: MRT0-inf; for MRT last: read-out: MRT0-last
Protocol: DNDI-6148 was administrated intravenously at 1 mg/kg and orally at 5 mg/kg to male Beagle dogs. The formulation for the i.v. leg was 2% ethanol, 1.0 mol equiv NaOH, dextrose (5% solution) filtered, and adjusted to pH 7, and for the p.o. leg, the formulation was 2% ethanol, 1.0 mol equiv NaOH, and dextrose (5% solution). The K2-EDTA anticoagulant was added to blood samples collected at predose, 0.033 (i.v. only), 0.083 (p.o. only), 0.25, 0.5, 1, 3, 6, 9, and 24 h, and were stabilized with phosphoric acid (1% final) before analysis by LC-MS/MS. PK parameters were calculated using WinNonlin software (version 6.3).

[5] = Liver microsome stability, mouse; assay type: in vitro ADME; conditions: Balb/c, mouse liver microsomes, pH 7.4
Protocol: Tests were performed by WuXi AppTec, China. Test compounds (at 1 μM) or positive controls (testosterone, propafenone, and diclofenac) were incubated at 37 °C with liver microsomes from Balb/c mouse, golden (Syrian) hamster, Sprague-Dawley rat, Beagle dog, or human in the presence of a NADPH regenerating system and phosphate buffer (100 mM, pH 7.4) at 0.4 or 0.8 mg/mL microsomal protein. The samples were removed at time intervals from 0 to 60, 90, or 120 min and immediately mixed with cold methanol supplemented or not with acid (3% formic acid) and centrifuged prior to analysis by LC-MS/MS using tolbutamide or propranolol as internal standards.

[6] = male, Beagle, plasma, IV 1.0 mg/kg, mean
[7] = male, Beagle, plasma, PO 5 mg/kg, mean
[8] = male, Beagle, plasma, iv, i.v. 1 mg/kg

CYP2D6, sequence (P10635 whole entry): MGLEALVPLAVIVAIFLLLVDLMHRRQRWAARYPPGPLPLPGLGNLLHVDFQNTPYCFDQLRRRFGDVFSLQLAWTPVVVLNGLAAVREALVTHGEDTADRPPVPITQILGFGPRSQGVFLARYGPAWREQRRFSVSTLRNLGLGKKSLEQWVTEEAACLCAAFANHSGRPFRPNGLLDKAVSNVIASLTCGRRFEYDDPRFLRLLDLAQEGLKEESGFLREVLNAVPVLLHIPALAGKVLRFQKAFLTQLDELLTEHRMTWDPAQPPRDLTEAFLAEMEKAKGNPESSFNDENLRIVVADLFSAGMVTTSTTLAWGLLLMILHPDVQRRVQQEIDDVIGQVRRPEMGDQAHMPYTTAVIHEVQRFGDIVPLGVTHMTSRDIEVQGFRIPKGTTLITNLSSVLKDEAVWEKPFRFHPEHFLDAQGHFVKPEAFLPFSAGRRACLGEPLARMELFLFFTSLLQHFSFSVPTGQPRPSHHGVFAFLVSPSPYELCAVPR

Q: Which IC50 (CYP2D6) does the source give for `Cc1c(C(=O)Nc2ccc3c(c2)B(O)OC3)nnn1-c1ccccn1` [Compound 23, N-(1-Hydroxy-1,3-dihydrobenzo[c][1,2]oxaborol-6-yl)-5-methyl-1-(pyridin-2-yl)-1H-1,2,3-triazole-4-carboxamide] here?
A: > 50000 nM

Q: And the EC50 [1]?
A: 508 ± 13 nM

Q: And the EC50 [2]?
A: 1670 ± 51 nM

Q: And the fraction unbound at 6 h, 2 µM [3]?
A: 0.13

Q: And the AUC0-inf/AUC0-last ([4]; IV 1.0 mg/kg, mean)?
A: 102%

Q: What about the Tlast ([4]; IV 1.0 mg/kg, mean) of the same compound?
A: 9.00 h

Q: What about the AUC0-inf/AUC0-last ([4]; PO 5 mg/kg, mean) of the same compound?
A: 103%

Q: What about the Tlast ([4]; PO 5 mg/kg, mean) of the same compound?
A: 9.00 h

Q: And the concentration at 0.033 h ([4]; male, Beagle, plasma, IV 1.0 mg/kg, 0.033 h, mean)?
A: 1560 ng/mL

Q: What about the concentration at 5 min [4, 6] of the same compound?
A: 1120 ng/mL

Q: And the concentration at 0.25 h [4, 6]?
A: 644 ng/mL

Q: What about the concentration at 0.5 h [4, 6] of the same compound?
A: 534 ng/mL

Q: What about the concentration at 1 h [4, 6] of the same compound?
A: 373 ng/mL

Q: And the concentration at 3 h [4, 6]?
A: 97.7 ng/mL

Q: What about the concentration at 6 h [4, 6] of the same compound?
A: 23 ng/mL

Q: What about the concentration at 9 h [4, 6] of the same compound?
A: 8.8 ng/mL

Q: What about the concentration at 24 h [4, 6] of the same compound?
A: 0.9 ng/mL

Q: What about the AUC(0-inf) [4, 6] of the same compound?
A: 1270 ng·h/mL

Q: What about the AUC(0-t) [4, 6] of the same compound?
A: 1240 ng·h/mL

Q: And the C0 [4, 6]?
A: 1930 ng/mL

Q: What about the half-life [4, 6] of the same compound?
A: 1.49 h

Q: And the MRT inf [4, 6]?
A: 1.66 h

Q: What about the MRT last [4, 6] of the same compound?
A: 1.51 h

Q: And the Vd ([4]; male, Beagle, plasma, IV 1.0 mg/kg, mean, read-out: Vdss)?
A: 1.31 L/kg

Q: What about the concentration at 5 min [4, 7] of the same compound?
A: 266 ng/mL

Q: And the concentration at 0.25 h [4, 7]?
A: 1130 ng/mL

Q: And the concentration at 0.5 h [4, 7]?
A: 881 ng/mL

Q: And the concentration at 1 h [4, 7]?
A: 814 ng/mL

Q: What about the concentration at 3 h [4, 7] of the same compound?
A: 357 ng/mL

Q: And the concentration at 6 h [4, 7]?
A: 54.8 ng/mL

Q: What about the concentration at 9 h [4, 7] of the same compound?
A: 25.5 ng/mL

Q: What about the concentration at 24 h [4, 7] of the same compound?
A: 0.9 ng/mL

Q: And the AUC(0-inf) [4, 7]?
A: 2530 ng·h/mL

Q: What about the AUC(0-t) [4, 7] of the same compound?
A: 2470 ng·h/mL

Q: What about the Cmax [4, 7] of the same compound?
A: 1220 ng/mL

Q: And the Tmax [4, 7]?
A: 0.63 h

Q: And the half-life [4, 7]?
A: 1.46 h

Q: And the MRT inf [4, 7]?
A: 2.42 h

Q: What about the MRT last [4, 7] of the same compound?
A: 2.19 h

Q: What about the Vd at 24 h [4, 8] of the same compound?
A: 1.3 L/kg

Q: What about the clearance [4, 8] of the same compound?
A: 13.7 mL/min/kg

Q: What about the half-life at 24 h [4, 8] of the same compound?
A: 1.5 h

Q: And the bioavailability at 24 h ([4]; male, Beagle, plasma, po, p.o. 5 mg/kg)?
A: 39%

Q: What about the microsomal CLint at 1 μM [5] of the same compound?
A: < 11.9 µL/min/mg
